Source: patent publication US7939074B2, “Combination of an anti-EP-CAM antibody with a chemotherapeutic agent” (GlaxoSmithKline LLC, priority 1999, dated 2011)
Structures can show the parent of a compound that is named as a salt.

Key:
[1] = system: Human colon adenocarcinoma (HT-29) tumours; assay: Localization of 177Lu-labelled humanised 323/A3 IgG4cys-TMT to HT-29 xenografts after drug pre-treatment; assay type: in vivo, female CD-1 nude mice; settings: HT-29 xenograft mice; NAVELBINE 28 mg/kg i.v. or 5-FU 20 mg/kg i.p. on days 1 and 5; labelled antibody on day 6
Procedure: Human colon adenocarcinoma (HT-29) tumours were initiated by subcutaneous implantation into female CD-1 nude mice (Charles River). When the tumours reached 200-300 mg, animals were divided into groups of five. NAVELBINE® was injected intravenously at a dosage of 28 mg/kg on days 1 and 5. A control group was dosed with 5-fluorouracil (5-FU) intraperitoneally at 20 mg/kg on days 1 and 5. On day 6, humanised 323/A3 IgG4cys-TMT (a humanized monoclonal antibody chelator conjugate with specificity for the Ep-CAM antigen) was labelled with lutetium-177 and injected intravenously via the lateral tail vein. Each mouse received […]/2.09 μCi lutetium-177/0.2 ml injection. Blood, spleen, liver, lung, kidney, femur and tumour were harvested on days 1, 3 and 5 post-antibody for direct gamma counting (see FIG. 5 for results).

[2] = system: Ep-CAM antigen on adenocarcinoma cells; assay: Quantification of Ep-CAM antigen expression by binding of fluorescein-conjugated 323/A3 versus calibrated microbead standards; assay type: cell-based, human; settings: adenocarcinoma cells exposed to drugs, Example 2 / FIG. 2, versus media
Procedure: (§1) Populations of PC-3 prostatic adenocarcinoma cells were evaluated for distribution in G0/G1, S, and G2/M phases of the cell cycle as well as Ep-CAM expression. Cells were gently trypsinized and mechanically detached from the culture flasks and resuspended in calcium and magnesium-free phosphate-buffered saline containing bovine serum albumin and NaN3. Exactly 2×10^5 cells were stained with FITC-323/A3 murine IgG antibody or FITC-murine IgG (control). Cells were fixed with cold paraformaldehyde, then permeabilized for DNA staining with Tween-20. Cellular DNA was stained with propidium iodide and RNase A. Listmode data were acquired on a FACScan flow cytometer (Becton Dickinson Immunocytometry Systems) equipped with a 488 nm laser using Cell Fit software. Cell cycle analysis was done using SOBR modelling (where possible, otherwise manual estimations were employed) on Cell Fit. Ep-CAM antigen expression as detected by 323/A3 binding was evaluated separately using histogram analysis in WINLIST™ (Verity Software House).
(§2) Subconfluent cells were exposed to NAVELBINE® or TAXOL® for up to 24 hours, then washed and exposed to cisplatin or carboplatin, respectively, overnight. Cells were exposed to 5FU for 24 hours, and for 2-5 days to the interferons. Cells were washed and cultured for another 2-5 days prior to analysis for antigen expression and cell cycle status as described in Example 1. Antigen expression was quantified by comparison of the binding of fluorescein-conjugated 323/A3 to cultured cells with binding to calibrated microbead standards.
The expression of Ep-CAM antigen was quantified on a variety of adenocarcinoma cell lines as well as primary cultures of normal human cells. Cultured subconfluent cells were exposed sequentially to media, or to 30 nM NAVELBINE® followed by 5 μM cisplatin (NVB+CDDP), or to 80 nM TAXOL® followed by 100 μM carboplatin (TAX+CPBDA). Cells were washed with media and cultured for another 2-5 days prior to analysis for antigen expression as described in Examples 1 and 2.

adenocarcinoma cells = assay: Cell cycle analysis (propidium iodide flow cytometry) of drug-exposed adenocarcinoma cell lines; assay type: cell-based, human; settings: adenocarcinoma cell line; NVB 30 nM then CDDP 5 μM; TAX 80 nM then CPBDA 100 μM; interferons 100 U/ml; media control 6.3%
Procedure: as §1, §2

[3] = system: HT29 adenocarcinoma cells; assay: Cell cycle arrest in drug-treated HT29 cells; assay type: cell-based, human; settings: HT29 cells cultured with drugs; control cells 21%
Procedure: as §1, with “Cellular DNA was stained with propidium iodide and RNase A. Listmode data were acquired on a FACScan flow cytometer (Becton Dickinson Immunocytometry Systems) equipped with a 488 nm laser using Cell Fit software. Cell cycle analysis was done using SOBR modelling (where possible, otherwise manual estimations were employed) on Cell Fit.” left out
Subconfluent cells were exposed to NAVELBINE® or TAXOL® for up to 24 hours, then washed and exposed to cisplatin or carboplatin, respectively, overnight. […] Antigen expression was quantified by comparison of the binding of fluorescein-conjugated 323/A3 to cultured cells with binding to calibrated microbead standards.
The binding of PANOREX®, a related murine monoclonal antibody with specificity for the Ep-CAM antigen, was evaluated after a 15 minute incubation with HT29 adenocarcinoma cells which had been cultured with NAVELBINE® plus Cisplatin or with TAXOL® as previously described. […]

[4] = system: HT29 adenocarcinoma cells; assay: Binding of PANOREX to drug-treated HT29 cells; assay type: cell-based, human; settings: 15 minute incubation with PANOREX after culture with drugs
Procedure: as §2
The binding of PANOREX®, a related murine monoclonal antibody with specificity for the Ep-CAM antigen, was evaluated after a 15 minute incubation with HT29 adenocarcinoma cells which had been cultured with NAVELBINE® plus Cisplatin or with TAXOL® as previously described. A significant increase (34%) in antibody binding was seen on the cells treated with NAVELBINE® plus Cisplatin; 82% of these cells were arrested in S or G2/M cycle phase compared to 21% of the control cells.

Row | Molecule | antibody targeting to Ep-CAM positive tumours [1] | Ep-CAM antigen expression [2] | cells in S and G2/M phases combined (adenocarcinoma cells) | cells arrested in S or G2/M cycle phase [3] | increase in antibody binding (PANOREX) [4]
1 | CCC1=C[C@@H]2CN(C1)Cc1c([nH]c3ccccc13)[C@@](C(=O)OC)(c1cc3c(cc1OC)N(C)[C@H]1[C@@](O)(C(=O)OC)[C@H](OC(C)=O)[C@]4(CC)C=CCN5CC[C@]31[C@@H]54)C2 (relative stereo) [NAVELBINE®, 3′,4′-didehydro-4′-deoxy-C′-norvincaleukoblastine [R-(R*,R*)-2,3-dihydroxybutanedioate (1:2)(salt)]] | increases antibody targeting | – | – | – | –
2 | O=c1[nH]cc(F)c(=O)[nH]1 [5FU, 5-Fluorouracil] | – | not significantly increased | 7.9% | – | –
3 | CC(=O)O[C@H]1C(=O)[C@@]2(C)[C@H]([C@H](OC(=O)c3ccccc3)[C@]3(O)C[C@H](OC(=O)[C@H](O)[C@@H](NC(=O)c4ccccc4)c4ccccc4)C(C)=C1C3(C)C)[C@]1(OC(C)=O)CO[C@@H]1C[C@@H]2O [TAXOL®, 5β,20 epoxy-1,2α,4,7β,10β,13α-hexahydroxytax-11-en-9-one 4,10-diacetate 2-benzoate 13-ester with (2R,3S)-N-benzoyl-3-phenylisoserine] | – | – | – | 57% | 8%
4 | IFN-α | – | not significantly increased | 12% | – | –
5 | IFN-γ: interferon-gamma, used at 100 U/ml | – | not significantly increased | 11.5% | – | –
